Columns and labels:
[1] = test system: Roundup Ready cotton event 1445; assay: Field trial, cotton lint yield after glyphosate treatment (10 locations); assay type: in vivo, Gossypium hirsutum
Excerpt: (§1) The field trials were arranged in a randomized split plot design with three replications and three treatments. The events were planted in two row, 30-foot plots. The treatments consisted of unsprayed, 64 oz/A (1.5 lb ae/A) Roundup Ultra® at the 4, 6, 10, 14-node stages, and 96 oz/A (2.25 lb ae/A) Roundup Ultra® at the 4, 6, 10, 14-node stages. A mid-season plant map was completed on ten plants per plot. Boll retention data was collected for the first and second fruiting positions of the first five fruiting nodes that provides a boll retention value scale of 0-10. A plant with a boll retention value equal to or greater than 3 on the 0-10 scale has value as a new glyphosate tolerant plant selection.
(§2) Yield is a measure of boll retention, cotton plants engineered for glyphosate tolerance that retain a substantial number of bolls in the first and second fruiting positions will maintain a yield advantage over cotton plants that are not as glyphosate tolerant. An effective dose of a glyphosate containing herbicide to control weeds in a field of MON 88913 comprises about 4 oz/A and may exceed 128 oz/A depending on the species of weed to be controlled and the stage of weed development. Glyphosate can be mixed with other herbicides to enhance the herbicidal activity against certain weed species.

cotton event MON 88913 = assay: as above; assay type: in vivo, Gossypium hirsutum
Excerpt: as §1, §2

[2] = glyphosate 1.5 lb ae/A (64 oz/A Roundup Ultra) at the 4, 6, 10, 14-node stages
[3] = glyphosate 2.25 lb ae/A (96 oz/A Roundup Ultra) at the 4, 6, 10, 14-node stages

O=C(O)CNCP(=O)(O)O [Glyphosate, N-phosphonomethylglycine]
Yield (lb/A) of 10 Locations, cotton lint [1, 2]: 1044.19 lb/A
Yield (lb/A) of 10 Locations, cotton lint [1, 3]: 831.47 lb/A
Yield (lb/A) of 10 Locations, cotton lint (cotton event MON 88913; [2]): 2587.61 lb/A
Yield (lb/A) of 10 Locations, cotton lint (cotton event MON 88913; [3]): 2412.3 lb/A

Source: patent US8071735B2, “Cotton event MON 88913 and compositions and methods for detection thereof” (priority 2003, dated 2011)
